Test results: patent US20050033050A1, “Phthalazinones and the use thereof in order to combat undesirable microorganisms” (priority 2001, published 2005)
Like-named read-outs stand apart in the source and are kept apart here.

Key:
[1] = logP by HPLC (EEC directive 79/831 Annex V.A8, gradient method); format: physicochemical; conditions: for logP*: compounds of formula (IV), Table 2; for log P*: Table 1
[2] = system: Erysiphe graminis fsp. tritici; assay: Erysiphe test (wheat)/protective; format: in vivo; conditions: protective, application rate 500 g/ha, evaluation 7 days after inoculation, 100% = no infection
Method: (§1) To produce a suitable preparation of active compound, I part by weight of active compound is mixed with the stated amounts of solvent and emulsifier, and the concentrate is diluted with water to the desired concentration.
To test for protective activity, young plants are sprayed with the preparation of active compound at the stated application rate.
After the spray coating has dried on, the plants are dusted with spores of Erysiphe graminis fsp. tritici.
(§2) The plants are placed in a greenhouse at a temperature of about 20° C. and a relative atmospheric humidity of about 80% to promote the development of mildew pustules.
(§3) Evaluation is carried out 7 days after the inoculation. 0% means an efficacy which corresponds to that of the control, whereas an efficacy of 100% means that no infection is observed.

[3] = system: Erysiphe graminis f.sp. hordei; assay: Erysiphe test (cucumber)/protective; format: in vivo; conditions: protective, application rate 500 g/ha, evaluation 7 days after inoculation; 100% = no infection
Method: as §1, with “1” for “I”, “concentration. To test for protective activity, young plants are sprayed with the preparation of active” for “concentration.”
compound at the stated application rate.
After the spray coating has dried on, the plants are dusted with spores of Erysiphe graminis f.sp. hordei.
as §2, §3

[4] = gradient method, acetonitrile/0.1% aqueous phosphoric acid
[5] = gradient method, acetonitrile/0.1% aqueous phosphoric acid, compounds of formula (I), Table 1, read-out: log P*
[6] = preparation example, read-out: HPLC: logP
[7] = gradient method, acetonitrile/0.1% aqueous phosphoric acid, compounds of formula (I)

In the case of `CCCOc1n[nH]c(=O)c2cc(Br)ccc12` [(IV-2)], the “logP*” value [1, 4] is reported as 2.66.
In the case of `CCCOc1n[nH]c(=O)c2ccc(Br)cc12` [(IV-3)], the “logP*” value [1, 4] is reported as 2.71.
In the case of `CCC(C)Oc1n[nH]c(=O)c2ccc(Br)cc12` (stereo not shown) [(IV-4)], the “logP*” value [1, 4] is reported as 3.12.
With `CCC(C)Oc1n[nH]c(=O)c2cc(Cl)c(Cl)cc12` (stereo not shown) [(IV-5)] the “logP*” value [1, 4] was 3.62.
In the case of `CC(C)COc1n[nH]c(=O)c2cc(Cl)c(Cl)cc12` [(IV-6)], the “logP*” value [1, 4] is reported as 3.64.
`CCCOc1nn(CCC)c(=O)c2cc(Br)ccc12` [Example 1, 7-bromo-4-propoxy-2-propyl-1(2H)-phthalazinone] showed a chromatographic logP [1, 5] of 4.76 and a chromatographic logP [1, 6] of 4.76.
With `CCCOc1nn(CCC(C)C)c(=O)c2ccc(Br)cc12` [Example 2, 6-bromo-2-isopentyl-4-propoxy-1 (2H)-phthalazinone] the chromatographic logP [1, 5] was 5.91 and the chromatographic logP [1, 6] was 5.91.
In the case of `CCCOc1nn(CCC)c(=O)c2ccc(Br)cc12` [Example 4], the efficacy [2] is reported as 100% and the “log P*” value [1, 7] is reported as 4.8.
With `CCC(C)Oc1nn(C(C)CC)c(=O)c2cc(Br)ccc12` (stereo not shown) [Example 9] the “log P*” value [1, 7] was 5.52.
In the case of `CCCOc1nn(CCC)c(=O)c2cc(Cl)c(Cl)cc12` [Example 10], the efficacy [2] is reported as 100% and the “log P*” value [1, 7] is reported as 5.51.
With `CCCCOc1nn(CCCC)c(=O)c2cc(Cl)c(Cl)cc12` [Example 11] the efficacy [3] was 100%, the efficacy [2] was 100% and the “log P*” value [1, 7] was 6.71.
In the case of `CCC(C)Oc1nn(C(C)CC)c(=O)c2cc(Cl)c(Cl)cc12` (stereo not shown) [Example 12], the “log P*” value [1, 7] is reported as 3.62.
For `CC(C)COc1nn(CC(C)C)c(=O)c2cc(Cl)c(Cl)cc12` [Example 13], the “log P*” value [1, 7] was 6.46.
In the case of `CCCOc1cc2c(OCCC)nn(CCC)c(=O)c2cc1F` [Example 15], the “log P*” value [1, 7] is reported as 4.82.
With `CCCOc1cc2c(=O)n(CCC)nc(OCCC)c2cc1F` [Example 16] the “log P*” value [1, 7] was 5.26.
In the case of `CCC(C)Oc1n[nH]c(=O)c2cc(Br)ccc12` (stereo not shown) [Example (IV-1), 7-bromo-4-sec-butoxy-1 (2H)-phthalazinone], the chromatographic logP [1, 6] is reported as 3.01.
